Results: patent US12357630B2, “Ceritinib formulation” (Novartis AG, priority 2014, dated 2025)
Converted amounts (≈) assume the structure as drawn.

Tests used:
[1] = Solubility in water; format: physicochemical; conditions: 25° C.
Description: (§1) Ceritinib is a difficult compound to formulate. […] In addition, physical characteristics of Ceritinib cause sticking and picking during tableting or encapsulation of the drug and make it poorly compressible. Furthermore, the drug is administered at a high dose of 750 mg, which would require a patient to take daily up to 5 units of 150 mg. If the dose is to be increased in a respective dosage form, the increase in drug load generally negatively affects the compressibility of a tablet. Ceritinib's sticky nature causes a high drug load to further negatively influence the manufacturing of tablets due to enhanced sticking/picking.

[2] = Permeability / Biopharmaceutics Classification System; format: in vitro ADME
Description: as §1

solubility [1]: 20 µg/mL (≈ 35.8 µM)
permeability [2]: low permeability
SMILES: Cc1cc(Nc2ncc(Cl)c(Nc3ccccc3S(=O)(=O)C(C)C)n2)c(OC(C)C)cc1C1CCNCC1 [Ceritinib, 5-chloro-N^2-(2-isopropoxy-5-methyl-4-(piperidin-4-yl)phenyl)-N^4-[2-(propane-2-sulfonyl)-phenyl]-pyrimidine-2,4-diamine]
